Data taken from US20250066358A1, “Inhibitors of Menin-MLL Interaction” (Bala Therapeutics, Inc., priority 2021, published 2025).

How the values were obtained:
[1] = biological target: T1, recombinant MEN1 protein and fluorescein-labeled MLL4-43 peptide (Homo sapiens, UniProt O00255); test: Primary fluorescence polarization assay of MEN1 / MLL4-43 interaction inhibition; format: binding; details: MEN1 10 nM, MLL4-43 0.5 nM, 1 hour at room temperature
T1 construct: purchased Creativebiomart MEN1-35H
T1 sequence (O00255 1-610): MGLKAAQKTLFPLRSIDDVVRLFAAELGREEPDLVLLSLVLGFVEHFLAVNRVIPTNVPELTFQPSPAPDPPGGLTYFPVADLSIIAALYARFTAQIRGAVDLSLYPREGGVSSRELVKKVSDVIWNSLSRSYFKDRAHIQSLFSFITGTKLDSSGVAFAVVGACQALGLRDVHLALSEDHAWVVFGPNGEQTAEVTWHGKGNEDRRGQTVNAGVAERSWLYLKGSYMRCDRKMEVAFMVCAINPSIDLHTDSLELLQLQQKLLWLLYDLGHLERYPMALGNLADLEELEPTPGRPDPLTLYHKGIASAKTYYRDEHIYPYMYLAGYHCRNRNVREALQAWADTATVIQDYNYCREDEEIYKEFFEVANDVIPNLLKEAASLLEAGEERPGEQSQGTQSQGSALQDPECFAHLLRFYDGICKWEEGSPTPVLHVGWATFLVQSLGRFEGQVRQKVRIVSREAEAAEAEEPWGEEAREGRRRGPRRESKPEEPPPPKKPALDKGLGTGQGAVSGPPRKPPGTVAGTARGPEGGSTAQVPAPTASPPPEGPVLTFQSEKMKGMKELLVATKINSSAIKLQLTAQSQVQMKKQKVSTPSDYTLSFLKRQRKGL
Method: Compound activity was determined using recombinant MEN1 protein (Creativebiomart, Cat #MEN1-35H) and a custom fluorescein-labeled MLL4-43 peptide (Eton Bioscience Inc.). Interaction between MEN1 and MLL4-43 in the presence of compounds was determined by fluorescence polarization assay using a Microplate Reader ClarioStar Plus. The reaction was carried out in assay buffer (50 mM TRIS-HCl PH 7.4-7.6, 50 mM NaCl, 1 mM DTT, 0.1 mg/ml BSA). The compounds were dispensed on a 384 well Diamond Well Plate (Axigen, Cat #P-384-120 SQ-C—S) using the Biomek FX liquid handling system at 100× solutions of compounds in DMSO. 2× MEN1 mix (final concentration of MEN1 10 nM) was prepared in Assay buffer and 10 μl of mixture per well was added into 384w white Reaction plate with NBS(Corning, Cat #4513). 10 μl of Assay buffer w/o MENI was used for negative control. Plates were centrifuged for 1 min at 100 g. Next step the Compounds were added to Reaction plate using Biomek station via following steps: 3 μl of 100× compounds (in DMSO) were mixed thoroughly with 27 μl Assay Buffer, then 2 μl of this mixture was added to Reaction plate with 10 μl of MENI mix. Plates were centrifuged for 1 min at 100 g and incubated for 20 min at room temperature. Next 8 μL of MLL4-43 peptide per well was added to final concentration of MLL 0.5 nM. Plates were incubated for 1 hour at room temperature. Then fluorescence polarization was measured using Microplate Reader.

[2] = tested on: MOLM-13; test: MOLM-13 Cellular Growth Inhibition Assay (CellTiter-Glo); format: cell-based; details: Homo sapiens, 168 h, MOLM-13 cells, 7 days of incubation
Method: (§1) HEK293 (Institute of Cytology Russian Academy of Science), MV4-11 (ATCC, CRL-9591), MOLM-13 (AcceGen, ABC-TC517S) were seeded at a density of 500 cells per well (HEK293) and 2000 cells per well (MV4-11, MOLM-13) in a 384-well clear bottom plate (Greiner Cat #781090) in 45 μl total volume of DMEM (PanEco, Cat #C420, Russia) or RPMI (PanEco, Cat #C330, Russia) with 10% FBS(HyClone Cat #SV30160.03). HEK293 were allowed to adhere overnight at 37° C., 5% CO2. 500× compounds solutions in DMSO (Sigma Cat #D2650) were prepared into Cmpnds plate (Diamond Well Plate, Axigen, Cat #P-384-120 SQ-C—S) and DMSO only control was included. 1 μl of 500× compounds (Cmpnds plate) was added to 49 μl of culture medium into Dilution plate (Diamond Well Plate, Axigen, Cat #P-384-120 SQ-C—S), mixed and then 5 μl of 10× compounds solutions were transferred to cells followed by centrifugation at 100 g for 1 min. Final DMSO concentration was 0.2%. After 3 days of incubation, 10 μl of 1× compounds were added to cells. After 7 days of incubation, 12 μl of CellTiter-Glo (Promega, CAT #G7572) were added to the cells, plate was centrifuged at 100 g for 1 min and luminescence signal was measured using Microplate Reader (CLARIOStar).

[3] = tested on: MV4-11; test: MV4-11 Cellular Growth Inhibition Assay (CellTiter-Glo); format: cell-based; details: Homo sapiens, 168 h, MV4-11 cells, 7 days of incubation
Method: as §1

[4] = HEK293 Cellular Growth Inhibition Assay (CellTiter-Glo); format: cell-based; details: human, HEK293 cells, 7 days of incubation
Method: as §1

SMILES | EC50 [1] [µM] | CC50 [2] [µM] | CC50 [3] [µM] | CC50 at 7 days [4] [µM]
CCS(=O)(=O)NC12CC(CN3CCC4(CC3)CN(c3ncnc5ccc(CC(F)(F)F)cc35)C4)(C1)C2 [Compound 74, N-(3-((2-(6-(2,2,2-trifluoroethyl)quinazolin-4-yl)-2,7-diazaspiro[3.5]nonan-7-yl)methyl)bicyclo[1.1.1]pentan-1-yl)ethanesulfonamide] | 1 to 5 | 10 to 20 | > 10 | 30 to 50
O=C1COc2cc(CN3CCC4(CC3)CN(c3ncnc5ccc(CC(F)(F)F)cc35)C4)ccc2N1 [Compound 75, 7-((2-(6-(2,2,2-trifluoroethyl)quinazolin-4-yl)-2,7-diazaspiro[3.5]nonan-7-yl)methyl)-2H-benzo[b][1,4]oxazin-3(4H)-one] | 0.075 to 0.5 | 1 to 5 | 2.5 to 5 | 15 to 30
CCS(=O)(=O)N[C@H]1CC[C@H](CNc2ccc(CN3CCC4(CC3)CN(c3ncnc5ccc(CC(F)(F)F)cc35)C4)cc2)CC1 [Compound 79, N-((1R,4R)-4-(((4-((2-(6-(2,2,2-trifluoroethyl)quinazolin-4-yl)-2,7-diazaspiro[3.5]nonan-7-yl)methyl)phenyl)amino)methyl)cyclohexyl)ethanesulfonamide] | 0.075 to 0.5 | 1 to 5 | > 10 | ≤ 5

Now from value to molecule, other results behind:

EC50 [1] [µM] | SMILES | CC50 [2] [µM] | CC50 [3] [µM] | CC50 at 7 days [4] [µM]
≤ 0.075 | FC(F)(F)Cc1ccc2ncnc(N3CC4(CCN(Cc5cccc6[nH]ccc56)CC4)C3)c2c1 [Compound 83, 4-(7-((1H-indol-4-yl)methyl)-2,7-diazaspiro[3.5]nonan-2-yl)-6-(2,2,2-trifluoroethyl)quinazoline] | 5 to 10 | 1 to 2.5 | 5 to 15
≤ 0.075 | FC(F)(F)Cc1ccc2ncnc(N3CC4(CCN(Cc5ccc6cc[nH]c6c5)CC4)C3)c2c1 [Compound 89, 4-(7-((1H-indol-6-yl)methyl)-2,7-diazaspiro[3.5]nonan-2-yl)-6-(2,2,2-trifluoroethyl)quinazoline] | 1 to 5 | ≤ 1 | ≤ 5
0.5 to 1 | FC(F)(F)Cc1ccc2ncnc(N3CC4(CCN(Cc5ccc6[nH]ccc6c5)CC4)C3)c2c1 [Compound 90, 4-(7-((1H-indol-5-yl)methyl)-2,7-diazaspiro[3.5]nonan-2-yl)-6-(2,2,2-trifluoroethyl)quinazoline] | 5 to 10 | 2.5 to 5 | 5 to 15
1 to 5 | Nc1ccc(CN2CCC3(CC2)CN(c2ncnc4ccc(CC(F)(F)F)cc24)C3)cc1C(=O)NCCN1CCOCC1 [Compound 91, 2-amino-N-(2-morpholinoethyl)-5-((2-(6-(2,2,2-trifluoroethyl)quinazolin-4-yl)-2,7-diazaspiro[3.5]nonan-7-yl)methyl)benzamide] | 10 to 20 | 2.5 to 5 | 5 to 15
0.075 to 0.5 | CCS(=O)(=O)N1Cc2ccc(CN3CCC4(CC3)CN(c3ncnc5ccc(CC(F)(F)F)cc35)C4)cc2C1 [Compound 94, 4-(7-((2-(ethylsulfonyl)isoindolin-5-yl)methyl)-2,7-diazaspiro[3.5]nonan-2-yl)-6-(2,2,2-trifluoroethyl)quinazoline] | 5 to 10 | 2.5 to 5 | 5 to 15
